Data from ChEMBL document CHEMBL1201862, “PubChem BioAssay data set” (2004).
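Cultured in 96-well plates, cells were exposed to test compound for 48 hours across five concentrations. GI50: concentration for 50% inhibition of growth.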 Active and inactive are the calls of the source. Cut-off read from the data, not from the text of the source: active = GI50 up to about 1.1 µM and inactive = higher.

Columns and labels:
Test in all cases: NCI tumour cell line growth inhibition, 48 h
[1] = tested on: ACHN
[2] = tested on: CCRF-CEM
[3] = tested on: COLO 205
[4] = tested on: EKVX
[5] = tested on: HCC 2998
[6] = tested on: HOP-92
[7] = tested on: MOLT-4
[8] = tested on: NCI-H226
[9] = tested on: NCI-H23
[10] = tested on: OVCAR-5
[11] = tested on: OVCAR-8
[12] = tested on: RPMI-8226
[13] = tested on: RXF 393
[14] = tested on: SF-295
[15] = tested on: SK-MEL-5
[16] = tested on: SR
[17] = tested on: U-251
[18] = tested on: UO-31
[19] = tested on: 786-0
[20] = tested on: MDA-MB-231

Structure (SMILES) | GI50 [1] | GI50 [2] | GI50 [3] | GI50 [4] | GI50 [5] | GI50 [6] | GI50 [7] | GI50 [8] | GI50 [9] | GI50 [10] | GI50 [11] | GI50 [12] | GI50 [13] | GI50 [14] | GI50 [15] | GI50 [16] | GI50 [17] | GI50 [18] | GI50 [19] | GI50 [20]
Cc1ccc(Sc2ccccc2[N+](=O)[O-])cc1 | 43.7 µM (inactive) | 30.9 µM (inactive) | 23.4 µM (inactive) | 28.6 µM (inactive) | 21 µM (inactive) | 19.4 µM (inactive) | 21.9 µM (inactive) | 21.7 µM (inactive) | 27.4 µM (inactive) | 72.3 µM (inactive) | 32.2 µM (inactive) | 42.4 µM (inactive) | 18 µM (inactive) | 21.6 µM (inactive) | 15.3 µM (inactive) | 31.3 µM (inactive) | 23 µM (inactive) | 28.8 µM (inactive) | – | –
NS(=O)(=O)c1ccc(CNC(=S)NC(=O)Nc2ccc(Cl)c(Cl)c2)cc1 | 17.5 µM (inactive) | 16.4 µM (inactive) | 33 µM (inactive) | – | – | 17.7 µM (inactive) | 15.9 µM (inactive) | – | 14.8 µM (inactive) | 29 µM (inactive) | 20.3 µM (inactive) | 16 µM (inactive) | 27.9 µM (inactive) | 16.3 µM (inactive) | 17.8 µM (inactive) | – | 11.9 µM (inactive) | 16.9 µM (inactive) | 16.8 µM (inactive) | 10.6 µM (inactive)
CC(C)c1cccc(C(C)C)c1NC(=S)Nc1ccccc1 | > 100 µM (inactive) | 41.4 µM (inactive) | > 100 µM (inactive) | > 100 µM (inactive) | > 100 µM (inactive) | > 100 µM (inactive) | > 100 µM (inactive) | > 100 µM (inactive) | > 100 µM (inactive) | > 100 µM (inactive) | > 100 µM (inactive) | > 100 µM (inactive) | 75.5 µM (inactive) | > 100 µM (inactive) | 48 µM (inactive) | > 100 µM (inactive) | > 100 µM (inactive) | > 100 µM (inactive) | – | –
O=C1Sc2ccccc2NC1=C(C(=O)c1ccccc1)C(=O)c1ccccc1 | 22.1 µM (inactive) | 1.18 µM (inactive) | 37.4 µM (inactive) | 33.1 µM (inactive) | 19.4 µM (inactive) | 36.6 µM (inactive) | – | 19.4 µM (inactive) | 22.6 µM (inactive) | 47.1 µM (inactive) | 22.9 µM (inactive) | 12.6 µM (inactive) | 47.1 µM (inactive) | 20.6 µM (inactive) | 16.8 µM (inactive) | – | 16 µM (inactive) | 29.9 µM (inactive) | 26.2 µM (inactive) | 65.6 µM (inactive)
O=c1[nH]c(NCc2ccncc2)nc2[nH]cnc12 | > 100 µM (inactive) | > 100 µM (inactive) | > 100 µM (inactive) | > 100 µM (inactive) | > 100 µM (inactive) | > 100 µM (inactive) | > 100 µM (inactive) | > 100 µM (inactive) | > 100 µM (inactive) | > 100 µM (inactive) | > 100 µM (inactive) | > 100 µM (inactive) | > 100 µM (inactive) | > 100 µM (inactive) | > 100 µM (inactive) | – | > 100 µM (inactive) | > 100 µM (inactive) | > 100 µM (inactive) | > 100 µM (inactive)
N#CC(c1ccccc1)N(CCOCCOCCN(C(=O)c1ccccc1)C(C#N)c1ccccc1)C(=O)c1ccccc1 (configuration not stated) | > 100 µM (inactive) | 58.5 µM (inactive) | > 100 µM (inactive) | > 100 µM (inactive) | 94.2 µM (inactive) | 43.8 µM (inactive) | 32.2 µM (inactive) | > 100 µM (inactive) | 84.7 µM (inactive) | > 100 µM (inactive) | > 100 µM (inactive) | – | > 100 µM (inactive) | > 100 µM (inactive) | 34.9 µM (inactive) | – | > 100 µM (inactive) | 37.1 µM (inactive) | > 100 µM (inactive) | > 100 µM (inactive)
C=CCOC1OC(CS(=O)(=O)O)C(OC(C)=O)C(OC(C)=O)C1OC(C)=O (configuration not stated) | – | > 100 µM (inactive) | > 100 µM (inactive) | – | > 100 µM (inactive) | > 100 µM (inactive) | > 100 µM (inactive) | > 100 µM (inactive) | > 100 µM (inactive) | > 100 µM (inactive) | > 100 µM (inactive) | > 100 µM (inactive) | > 100 µM (inactive) | > 100 µM (inactive) | > 100 µM (inactive) | > 100 µM (inactive) | > 100 µM (inactive) | > 100 µM (inactive) | – | –
COc1cc2c(c(OC)c1OC)-c1ccc(SC)c(=O)cc1[C@@H](NCc1ccc(C#N)cc1)CC2 | 0.00612 µM (active) | 0.00414 µM (active) | 0.0035 µM (active) | 0.00726 µM (active) | 0.00291 µM (active) | 0.0307 µM (active) | 0.00578 µM (active) | 0.00391 µM (active) | 0.00274 µM (active) | 0.00736 µM (active) | 0.0041 µM (active) | 0.00315 µM (active) | 0.00185 µM (active) | 0.00369 µM (active) | 0.00365 µM (active) | 0.002 µM (active) | 0.0031 µM (active) | 0.0764 µM (active) | 0.00528 µM (active) | –
